Assay results reported in patent US4248889A, “3,5-Dihydroxypentanoic ester derivatives having antihyperlipaemic activity” (Sankyo Company Limited, priority 1978, dated 1981).

target: cholesterol biosynthesis (crude enzyme extracted from rat liver); experiment: inhibition of cholesterol biosynthesis by crude enzyme extracted from rat liver (radioactive acetic acid, 37° C., 60 minutes; cholesterol precipitated with digitonin, radioactivity measured); assay type: biochemical
Procedure: Crude enzyme extracted from rat liver was reacted with radioactive acetic acid at 37° C. for 60 minutes. The radioactive cholesterol thus biosynthesized was saponified and precipitated with digitonin, and the radioactivity was measured to determine the amount of cholesterol produced. The reaction was repeated, by adding one of the compounds of the invention listed in the following Table at the beginning of the reaction, and the amount of cholesterol biosynthesized was again determined, to give a quantitative measurement of the inhibitory effect of the compounds of the invention. The concentrations (μg/ml) of the compounds of the invention and of a known compound (clofibrate) which gave approximately 50% inhibition of cholesterol biosynthesis re reported in the following Table as I50 values [see Bricker et al, The Journal of Biological Chemistry, 247, 4914 (1972)]. The compounds of the invention are identified in the following Table by the numbers heretofore assigned to them.

SMILES	I50 (concentration which gave approximately 50% inhibition of cholesterol biosynthesis) [µg/mL]
CCOC(=O)C(C)(C)Oc1ccc(Cl)cc1 [Clofibrate, clofibrate, reference compound]	250 to 300
CCOC(=O)CC(O)CC(O)CCc1ccccc1 (centres unmarked) [Compound 1, Ethyl 3,5-dihydroxy-7-phenylheptanoate]	3.7
CCOC(=O)CC(O)CC(O)CCc1ccc(Cl)cc1 (centres unmarked) [Compound 2, Ethyl 7-p-chlorophenyl-3,5-dihydroxyheptanoate]	17.2
CCOC(=O)CC(O)CC(O)CCc1cccc2ccccc12 (centres unmarked) [Compound 3, Ethyl 3,5-dihydroxy-7-(1-naphthyl)heptanoate]	5.0
CCOC(=O)CC(O)CC(O)CCc1c(C)ccc2ccccc12 (centres unmarked) [Compound 4, Ethyl 3,5-dihydroxy-7-(2-methyl-1-naphthyl)heptanoate]	0.24
CCOC(=O)CC(O)CC(O)CCc1c(C)ccc2c1CCCC2 (centres unmarked) [Compound 5, Ethyl 3,5-dihydroxy-7-(2-methyl-5,6,7,8-tetrahydro-1-naphthyl)heptanoate]	1.56
CCOC(=O)CC(O)CC(O)CCCc1cccc2ccccc12 (centres unmarked) [Compound 6, Ethyl 3,5-dihydroxy-8-(1-naphthyl)octanoate]	3.4
CCOC(=O)CC(O)CC(O)CCCc1c(C)ccc2ccccc12 (centres unmarked) [Compound 7, Ethyl 3,5-dihydroxy-8-(2-methyl-1-naphthyl)octanoate]	1.2
CCOC(=O)CC(O)CC(O)C=Cc1ccccc1 (centres unmarked) [Compound 8, Ethyl 3,5-dihydroxy-7-phenylhept-6-enoate]	9.0
CCOC(=O)CC(O)CC(O)C(C)Oc1ccccc1 (centres unmarked) [Compound 9, Ethyl 3,5-dihydroxy-6-phenoxyheptanoate]	23 to 50
CCOC(=O)CC(O)CC(O)COc1ccccc1Cl (centres unmarked) [Compound 10, Ethyl 6-(o-chlorophenoxy)-3,5-dihydroxyhexanoate]	5 to 15.2
